“Also recorded” adds a separate entry of the source.
Key:
Assay type in all cases: cell-based
J-Lat A1 cells = assay: Cellular viability by flow cytometry of live/dead staining; conditions: Na-Cro 10 mM to 40 mM
Procedure: An increased concentration of Na-Cro was added in the J-Lat A1 cells, and cellular viability was evaluated by flow cytometry of live/dead staining.

[1] = test system: latent HIV in resting CD4+ T cells from HIV-infected individuals under ART; assay: Quantitative Viral Outgrowth Assay (QVOA), p24 ELISA; conditions: resting CD4+ T cells from 5 HIV-infected individuals under ART; ex vivo
Procedure: It was tested whether the histone crotonylation inducer, sodium crotonate, can reactivate latent HIV reservoirs from a patient under ART. Peripheral blood samples were obtained from 5 HIV-infected individuals with undetectable plasma viral loads and higher CD4+ T cell numbers (see Table 1). One million resting CD4+ T cells were treated with IL-2, PHA+IL-2, or IL-2+Na-Cro, and HIV p24 production was measured by QVOA using p24 ELISA as a measure of HIV reactivation.
Quantitative Viral Outgrowth Assay: Peripheral blood mononuclear cells (PBMC) were obtained from HIV-infected individuals on suppressive ART (n=5) by continuous-flow leukopheresis. Isolation of resting CD4+ T cells and quantification of replication competent virus was performed as previously described (see S. Dandekar, et al. Current HIV/AIDS reports 4, 10-15 (2007)). […] Cultures were scored as positive if p24 was detected at day 15 and was increased in concentration at day 19. […]

[2] = test system: latent HIV in primary CD4+ T cells from HIV-infected patients under suppressive ART; assay: HIV transcription by ddPCR in primary CD4+ T cells from HIV-infected patients; conditions: primary CD4+ T cells of 6 patients; 40 mM Na-Cro or 12 nM PEP005; 6 hours; ddPCR
Procedure: Panels A-C illustrate that primary CD4+ T cells were treated with […] PMA 2 plus 2 μg/ml ionomycin, 12 nM PEP005, 40 mM Na-Cro, or 12 nM PEP005 combined with 40 mM Na-Cro for 6 hours. Viral transcription from total RNA was analyzed by RT-ddPCR with primers targeting initiation (TAR region) (see panel A), elongation (long LTR) (see panel B), or full transcription (poly A region) (see panel C) of the HIV genome. Panel D illustrates a working model of epigenetic regulation of HIV latency/transcription by histone crotonylation.
To validate this finding in the ex vivo primary CD4+ T cells from patients the peripheral blood samples from 6 HIV-infected patients under suppressive ART were obtained. They had undetectable plasma viral load (<20 copies/ml plasma) and >400 CD4+ T cell number per […] (see Table 1). Primary CD4+ T cells were treated with PMA/Ionomycin, PEP005, Na-Cro, or PEP005 in combination with Na-Cro for 6 hours. HIV transcription following reactivation was measured by digital droplet PCR (ddPCR) targeting TAR region (initiation), long LTR region (elongation), or Poly A region (full transcription) of HIV genome (see G. Jiang, et al. PLoS pathogens 11, e1005066 (2015); P. Kaiser, et al. Journal of virological methods 242, 1-8 (2017); and L. Shan, et al. Journal of Virology 87, 6521-6525 (2013)).
Primary CD4+ T Cell Isolation, Treatment, and Digital Droplet PCR Assays: Peripheral blood samples were obtained from HIV-infected individuals (age ranging from 46-62 years old) on suppressive ART for >8 years (n=6). The plasma viral loads were below the detective level (<20 copies/ml plasma) and the average CD4+ T cell number was 664.4±180.5 cells/ml. The primary CD4+ T cells were isolated using the EASYSEP™ kit ([…]™ Technologies Inc., Vancouver, BC, Canada) as previously described (see G. Jiang, et al. PLoS pathogens 11, el 005066 (2015) and G. Jiang, et al. AIDS 28, 1555-1566 (2014)). The purified CD4+ T cells were plated at a density of 0.5-1×10^6 cells and treated with Control, 200 ng/ml PMA plus 2 μM lonomycin, 12 nM PEP005, 40 mM Na-Cro, or 12 nM PEP005 plus 40 mM Na-Cro for 6 hours. Cell pellets were collected for RNA isolation. Initiation, elongation, or full transcription of HIV was analyzed with ddPCR assays as reported before (see G. Jiang, et al. PLoS pathogens 11, e1005066 (2015); P. Kaiser, et al. Journal of virological methods 242, 1-8 (2017); and L. Shan, et al. Journal of virology 87, 6521-6525 (2013)).

C/C=C/C(=O)[O-].[Na+] [Na-Cro, sodium crotonate]
cell toxicity (J-Lat A1 cells): not toxic to immune cells; also recorded: Minimal cell toxicity | replication-competent HIV recovered (HIV reactivation, QVOA) [1]: four of the five participants | elongation of HIV transcripts (long LTR), patients responding [2]: all 6 patients | full-length transcription of HIV (poly A region), patients responding [2]: 4 of the 6 patients | initiation of HIV transcription (TAR region), patients responding [2]: all 6 patients

Reference: patent publication US20230087766A1, “METHODS OF REACTIVATING LATENT HUMAN IMMUNODEFICIENCY VIRUS AND RELATED COMPOSITIONS” (priority 2017, published 2023)
